Measured values from patent publication US6908919B2, “Substituted polycyclic aryl and heteroaryl pyrazinones useful for selective inhibition of the coagulation cascade” (Pharmacia Corporation, priority 1999, dated 2005).
Where two headings read alike, the source gives them in different places.

Assays:
[1] = molecular target: Human factor Xa (Homo sapiens, UniProt P00742); assay: Xa Assay; format: biochemical; set-up: purchased Enzyme Research Laboratories, South Bend Ind; conditions: for % Inhibition Factor Xa (30 µM): at 30 µM inhibitor; for inhibition at 100 µM: at 100 μM inhibitor
[2] = molecular target: Human thrombin (Homo sapiens, UniProt P00734); assay: biochemical; conditions: for inhibition at 100 µM: read-out: % Inhibition Thrombin II at 100 μM
[3] = molecular target: T1, recombinant soluble tissue factor and recombinant human factor VIIa (TF-VIIa) (Homo sapiens, UniProt P08709); assay: TF-VIIa Assay; format: biochemical; conditions: for IC50: read-out: IC50 TF-VIIa; for inhibition at 30 µM: 1 h, at 30 µM inhibitor
T1 construct: conversion of coagulation factor VII to VIIa by Xa; purchased American Diagnostica, Greenwich Conn; host or cells: VIIa purchased; soluble TF made in house in E. coli
T1 sequence (P08709 61-212 limits assumed): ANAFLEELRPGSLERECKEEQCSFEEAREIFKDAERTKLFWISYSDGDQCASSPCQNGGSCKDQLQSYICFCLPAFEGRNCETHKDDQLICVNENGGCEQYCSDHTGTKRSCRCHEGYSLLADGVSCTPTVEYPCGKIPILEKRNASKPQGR
T1 sequence (P08709 213-466 limits assumed): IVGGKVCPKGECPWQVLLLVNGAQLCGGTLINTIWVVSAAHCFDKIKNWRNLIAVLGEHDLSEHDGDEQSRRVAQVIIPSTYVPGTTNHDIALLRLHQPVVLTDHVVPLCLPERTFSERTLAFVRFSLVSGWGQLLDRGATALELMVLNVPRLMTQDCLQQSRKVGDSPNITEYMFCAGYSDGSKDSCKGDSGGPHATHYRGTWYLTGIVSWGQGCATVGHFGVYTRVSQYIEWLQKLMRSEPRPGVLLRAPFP
T1 sequence (P13726 33-251 partner limits assumed): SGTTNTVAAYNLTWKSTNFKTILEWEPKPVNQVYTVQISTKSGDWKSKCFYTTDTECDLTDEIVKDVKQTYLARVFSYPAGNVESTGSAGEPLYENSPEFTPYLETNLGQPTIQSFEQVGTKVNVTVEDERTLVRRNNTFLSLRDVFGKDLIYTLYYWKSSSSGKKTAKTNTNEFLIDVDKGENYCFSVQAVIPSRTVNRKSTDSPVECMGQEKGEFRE

Sequence of Human factor Xa (P00742 41-179 limits assumed): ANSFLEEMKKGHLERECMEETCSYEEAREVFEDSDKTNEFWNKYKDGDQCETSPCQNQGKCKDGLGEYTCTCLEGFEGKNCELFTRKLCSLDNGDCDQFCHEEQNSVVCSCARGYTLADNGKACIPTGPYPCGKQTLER
Sequence of Human factor Xa (P00742 235-488 limits assumed): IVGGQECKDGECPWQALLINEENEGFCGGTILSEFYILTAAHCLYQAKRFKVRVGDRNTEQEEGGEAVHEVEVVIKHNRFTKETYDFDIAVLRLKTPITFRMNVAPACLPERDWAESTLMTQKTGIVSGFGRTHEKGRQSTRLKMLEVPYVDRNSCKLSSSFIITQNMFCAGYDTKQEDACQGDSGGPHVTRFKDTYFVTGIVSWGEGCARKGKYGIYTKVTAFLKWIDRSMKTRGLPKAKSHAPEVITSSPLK

SMILES | IC50 [3] [µM] | % Inhibition Factor Xa (100 µM) ([1]; inhibitor at 100 µM) [%] | % Inhibition TF-VIIa (100 µM) ([3]; inhibitor at 100 µM) [%] | other results
CSc1ccc(N)cc1-c1c(Cl)nc(NC(C)C)c(=O)n1CC(=O)NCc1ccc(C(=N)N)cc1 [Example 111] | 0.12 |  |  | IC50 [1]: > 30 µM; IC50 [2]: > 30 µM
COC(=O)c1cccc(Sc2ccc(N)cc2-c2c(Cl)nc(NC(C)C)c(=O)n2CC(=O)NCc2ccc(C(=N)N)cc2)c1 [Example 112] | 0.27 |  |  | IC50 [1]: 35 µM; IC50 [2]: 13 µM
N=C(N)c1ccc(CNC(=O)Cn2c(-c3cccc(C(=N)N)c3)c(Cl)nc(NC3CCC3)c2=O)cc1 [Example 114] | 0.38 |  |  | IC50 [1]: 6.5 µM; IC50 [2]: 4.3 µM
N=C(N)c1ccc(CNC(=O)Cn2c(-c3ccc(N)cc3)c(Cl)nc(NC3CCC3)c2=O)cc1 [Example 115] | 0.55 |  |  | % Inhibition Factor Xa (30 µM) [1]: 10%; IC50 [2]: 7.5 µM
N=C(N)c1ccc(CNC(=O)Cn2c(-c3cc(N)nc(C(=O)O)c3)cnc(NC3CCC3)c2=O)cc1 [Example 120] | 0.1 |  |  | inhibition at 100 µM [1]: 43%; inhibition at 100 µM [2]: 47%
CC(C)Nc1ncc(-c2cc(N)cc(N)c2)n(CC(=O)NCc2ccc(C(=N)N)cc2)c1=O [Example 121] | 0.0095 |  |  | inhibition at 83 µM ([1]; at 83 μM inhibitor): 23%; inhibition at 83 µM ([2]; read-out: % Inhibition Thrombin II at 83 μM): 44%
CC(C)Nc1nc(Br)c(-c2cccc(N)c2)n(CC(=O)NCc2ccc(C(=N)N)cc2)c1=O [Example 124] | 0.016 |  |  | % Inhibition Factor Xa (30 µM) [1]: 17%; IC50 [2]: 4.68 µM
CC(C)Nc1nc(Cl)c(-c2cc(N)cc(C(=O)NC(C)(C)c3ccccc3)c2)n(CC(=O)NCc2ccc(C(=N)N)cc2)c1=O [Example 128-4] | 0.0107 |  |  | inhibition at 100 µM [1]: 42%; IC50 [2]: 24 µM
CC(C)Nc1nc(Cl)c(-c2cc(N)cc(C(=O)NCc3cc(C(F)(F)F)cc(C(F)(F)F)c3)c2)n(CC(=O)NCc2ccc(C(=N)N)cc2)c1=O [Example 128-6] | 0.332 |  |  | inhibition at 100 µM [1]: 29%; inhibition at 100 µM [2]: 40%
CC(C)Nc1nc(Cl)c(-c2cc(N)cc(C(=O)NCc3ccccc3C(F)(F)F)c2)n(CC(=O)NCc2ccc(C(=N)N)cc2)c1=O [Example 128-11] | 0.0114 |  |  | inhibition at 100 µM [1]: 35%; inhibition at 100 µM [2]: 46%
CC(C)Nc1nc(Cl)c(-c2cc(N)cc(C(=O)NCc3cccc(F)c3)c2)n(CC(=O)NCc2ccc(C(=N)N)cc2)c1=O [Example 128-12] | 0.011 |  |  | inhibition at 100 µM [1]: 33%; inhibition at 100 µM [2]: 47%
CC(C)Nc1nc(Cl)c(-c2cc(N)cc(C(=O)NCc3cccc(C(F)(F)F)c3)c2)n(CC(=O)NCc2ccc(C(=N)N)cc2)c1=O [Example 128-13] | 0.0491 |  |  | inhibition at 100 µM [1]: 26%; inhibition at 100 µM [2]: 36%
CC(C)Nc1nc(Cl)c(-c2cc(N)cc(C(=O)NC3CCC3)c2)n(CC(=O)NCc2ccc(C(=N)N)cc2)c1=O [Example 128-15] | 0.0066 |  |  | inhibition at 100 µM [1]: 32%; IC50 [2]: 13.3 µM
CC(C)Nc1nc(Cl)c(-c2cc(N)cc(C(=O)NC3CCCC3)c2)n(CC(=O)NCc2ccc(C(=N)N)cc2)c1=O [Example 128-16] | 0.007 |  |  | inhibition at 100 µM [1]: 36%; IC50 [2]: 10.2 µM
CC(C)Nc1nc(Cl)c(-c2cc(N)cc(C(=O)NC3CCCCCC3)c2)n(CC(=O)NCc2ccc(C(=N)N)cc2)c1=O [Example 128-17] | 0.0109 |  |  | inhibition at 100 µM [1]: 41%; IC50 [2]: 20.2 µM
CC(C)Nc1nc(Cl)c(-c2cc(N)cc(C(=O)NCc3cccnc3)c2)n(CC(=O)NCc2ccc(C(=N)N)cc2)c1=O [Example 128-18] | 0.0185 |  |  | inhibition at 100 µM [2]: 21%
CC(C)Nc1nc(Cl)c(-c2cc(N)cc(C(=O)NCc3ccccn3)c2)n(CC(=O)NCc2ccc(C(=N)N)cc2)c1=O [Example 128-19] | 0.0261 |  |  | inhibition at 100 µM [1]: 18%; inhibition at 100 µM [2]: 37%
N=C(N)c1ccc(Cc2cccc(-n3c(-c4cccc(N)c4)c(Cl)nc(NC4CCC4)c3=O)c2)cc1 [Example 138] |  |  |  | inhibition at 100 µM [1]: 28%; inhibition at 100 µM [2]: 39%; inhibition at 30 µM [3]: 8%
N=C(N)c1ccc(CNCCn2c(-c3cccc(N)c3)c(Cl)nc(NC3CCC3)c2=O)cc1 [Example 139] | 4.71 |  |  | inhibition at 100 µM [1]: 41%; IC50 [2]: 35.8 µM
N=C(N)c1ccc(COCCn2c(-c3cccc(N)c3)c(Cl)nc(NC3CCC3)c2=O)cc1 [Example 140] | 13.3 |  |  | inhibition at 100 µM [1]: 24%; IC50 [2]: 47.4 µM
N=C(N)c1ccc(NC(=O)Cn2c(-c3cccc(N)c3)c(Cl)nc(NC3CCC3)c2=O)cc1 [Example 141] |  |  |  | inhibition at 100 µM [1]: 13%; inhibition at 100 µM [2]: 11%; inhibition at 30 µM [3]: 2%
N=C(N)c1ccc(CCC(=O)Cn2c(-c3cccc(N)c3)c(Cl)nc(NC3CCC3)c2=O)cc1 [Example 142] | 0.2 |  |  | IC50 [2]: 4.6 µM
Nc1cccc(-c2c(Cl)nc(NC3CCC3)c(=O)n2CC(=O)NCc2ccc3c(N)nsc3c2)c1 [Example 145] | 26.8 |  |  | % Inhibition Factor Xa (30 µM) [1]: 3%; IC50 [2]: > 30 µM
Nc1cccc(-c2c(Cl)nc(NC3CCC3)c(=O)n2CC(=O)NCc2ccc3[nH]cnc3c2)c1 [Example 146] |  |  |  | % Inhibition Factor Xa (30 µM) [1]: 5%; IC50 [2]: > 30 µM

SMILES | IC50 [3] [µM] | % Inhibition Factor Xa (100 µM) ([1]; inhibitor at 100 µM) [%] | % Inhibition TF-VIIa (100 µM) ([3]; inhibitor at 100 µM) [%] | other results
O=C(Cn1c(-c2cccc(Cl)c2)c(Cl)nc(NCCc2ccccc2)c1=O)NCCc1ccncc1 [Example E-0076] |  | 1 | 0 | 
O=C(Cn1c(-c2cccc(Cl)c2)c(Cl)nc(NCCc2ccccc2)c1=O)NCCc1cccnc1 [Example E-0077] |  | 3 | 0 | 
O=C(Cn1c(-c2cccc(Cl)c2)c(Cl)nc(NCCc2cccc(Cl)c2)c1=O)NCCc1ccncc1 [Example E-0079] |  | 4 | 0 | 
O=C(Cn1c(-c2cccc(Cl)c2)c(Cl)nc(NCCc2cccc(Cl)c2)c1=O)NCCc1cccnc1 [Example E-0080] |  | 4 | 1 | 
O=C(Cn1c(-c2cccc(Cl)c2)c(Cl)nc(NCCc2ccc(Cl)cc2)c1=O)NCCc1ccncc1 [Example E-0082] |  | 4 | 4 | 
O=C(Cn1c(-c2cccc(Cl)c2)c(Cl)nc(NCCc2ccc(Cl)cc2)c1=O)NCCc1cccnc1 [Example E-0083] |  | 3 | 2 | 
O=C(Cn1c(-c2cccc(Cl)c2)c(Cl)nc(NCc2ccccc2)c1=O)NCCc1ccncc1 [Example E-0085] |  | 0 | 0 | 
O=C(Cn1c(-c2cccc(Cl)c2)c(Cl)nc(NCc2ccccc2)c1=O)NCCc1cccnc1 [Example E-0086] |  | 4 | 0 | 
O=C(Cn1c(-c2cccc(Cl)c2)c(Cl)nc(NCCc2ccccc2)c1=O)NCCc1ccncc1 [Example E-0088] |  | 3 | 0 | 
O=C(Cn1c(-c2cccc(Cl)c2)c(Cl)nc(NCCc2ccccc2)c1=O)NCCc1cccnc1 [Example E-0089] |  | 4 | 3 | 
O=C(Cn1c(-c2cccc(Cl)c2)c(Cl)nc(NCCc2cccc(Cl)c2)c1=O)NCCc1ccncc1 [Example E-0091] |  | 4 | 1 | 
O=C(Cn1c(-c2cccc(Cl)c2)c(Cl)nc(NCCc2cccc(Cl)c2)c1=O)NCCc1cccnc1 [Example E-0092] |  | 3 | 1 | 
O=C(Cn1c(-c2cccc(Cl)c2)c(Cl)nc(NCCc2ccc(Cl)cc2)c1=O)NCCc1ccncc1 [Example E-0094] |  | 2 | 2 | 
O=C(Cn1c(-c2cccc(Cl)c2)c(Cl)nc(NCCc2ccc(Cl)cc2)c1=O)NCCc1cccnc1 [Example E-0095] |  | 4 | 2 | 
COc1ccc(-c2c(Cl)nc(NCc3ccccc3)c(=O)n2CC(=O)NCCc2ccncc2)cc1 [Example E-0097] |  | 3 | 0 | 
COc1ccc(-c2c(Cl)nc(NCc3ccccc3)c(=O)n2CC(=O)NCCc2cccnc2)cc1 [Example E-0098] |  | 2 | 0 | 
COc1ccc(-c2c(Cl)nc(NCCc3cccc(Cl)c3)c(=O)n2CC(=O)NCCc2ccncc2)cc1 [Example E-0103] |  | 3 | 2 | 
COc1ccc(-c2c(Cl)nc(NCCc3cccc(Cl)c3)c(=O)n2CC(=O)NCCc2cccnc2)cc1 [Example E-0104] |  | 5 | 3 | 
COc1ccc(-c2c(Cl)nc(NCCc3ccc(Cl)cc3)c(=O)n2CC(=O)NCCc2ccncc2)cc1 [Example E-0106] |  | 3 | 5 | 
COc1ccc(-c2c(Cl)nc(NCCc3ccc(Cl)cc3)c(=O)n2CC(=O)NCCc2cccnc2)cc1 [Example E-0107] |  | 6 | 4 | 
O=C(Cn1c(-c2ccc(-c3ccccc3)cc2)c(Cl)nc(NCc2ccccc2)c1=O)NCCc1ccncc1 [Example E-0109] |  |  |  | % Inhibition Factor Xa (100 µM) [1]: 3%; % Inhibition TF-VIIa (100 µM) [3]: 2%
O=C(Cn1c(-c2ccc(-c3ccccc3)cc2)c(Cl)nc(NCc2ccccc2)c1=O)NCCc1cccnc1 [Example E-0110] |  |  |  | % Inhibition Factor Xa (100 µM) [1]: 3%; % Inhibition TF-VIIa (100 µM) [3]: 0%
O=C(Cn1c(-c2ccc(-c3ccccc3)cc2)c(Cl)nc(NCCc2ccccc2)c1=O)NCCc1ccncc1 [Example E-0112] |  |  |  | % Inhibition Factor Xa (100 µM) [1]: 1%; % Inhibition TF-VIIa (100 µM) [3]: 11%
O=C(Cn1c(-c2ccc(-c3ccccc3)cc2)c(Cl)nc(NCCc2ccc(Cl)cc2)c1=O)NCCc1ccncc1 [Example E-0118] |  |  |  | % Inhibition Factor Xa (100 µM) [1]: 3%; % Inhibition TF-VIIa (100 µM) [3]: 12%
